# Experimental data published in a melting point compilation (Tetko et al.).
row,SMILES,melting point [°C]
1,CCOCc1ccc(CNC(=O)CCl)cc1,86 to 88
2,O=C(O)Cc1ccccc1OC(F)F,76 to 78
3,CN(C)C(=O)Cn1cc(Br)cn1,163 to 165
4,Cc1cc(C(=O)O)cc(S(C)(=O)=O)c1F,229 to 231
5,NNC(=O)Cn1cnc2ccccc21,108 to 110
6,O=C(O)C1(Sc2ccccc2)CCCC1,65 to 67
7,COc1cccc(C=O)c1OC(F)F,30 to 32
8,CCN1CCCC1CN=C=S (stereo not drawn),43 to 45
9,N#CCc1cc(Br)ccc1F,43 to 45
10,N#Cc1ccc(N2CCN(c3ccc(F)cc3)CC2)nc1,166 to 168
11,Clc1noc(-c2ccco2)n1,73 to 75
12,Cc1nn(C)c(C)c1C(=O)C(=O)O,160 to 168
13,CCN(CC)S(=O)(=O)c1ccc(C=CC(=O)O)cc1,184 to 186
14,O=C(CCl)NCCC1=CCCCC1,60 to 62
15,CCOC(=O)C1=NN(c2ccc(Cl)cc2)C(=O)C1,141 to 143
16,O=C(O)c1c[nH]c(=O)cn1,265 to 267
17,O=C(CCl)Nc1ccccc1C(=O)O,185 to 187
18,NCCNC(=O)c1ccccc1O,38 to 40
19,O=C(O)c1ccc(Cl)c(S(=O)(=O)NCC2CCCO2)c1 (stereo not drawn),207 to 209
20,Cc1sc(N)nc1-c1c[nH]c2ncccc12,240 to 242
21,Cn1c(=O)c2ccccc2n2c(CCl)nnc12,228 to 229
22,Cc1cnc2c(c1)NC(=O)CO2,259 to 261
23,Cc1cc(O)cc(=O)n1C(C)C(=O)O (stereo not drawn),258 to 260
24,O=C(O)CN1CCOc2ccc(Cl)cc21,156 to 158

row,SMILES,melting point [°C]
1,COc1ccc(C(=O)O)nc1Br,232 to 234
2,Cc1nn2c(=S)nc3ccccc3c2[nH]1,291 to 293
3,NC(=O)CCNC(=O)c1ccccc1N,197 to 199
4,CC(C)(C)OC(=O)N1CCCC(C(=O)NC2CCCNC2)C1 (stereo not drawn),116 to 118
5,Nc1nc(-c2cccc(C(F)(F)F)c2)cs1,85 to 87
6,O=C(O)c1ccc2ncoc2c1,242 to 244
7,COc1cc(C(C)=O)cc(O)c1OC,59 to 61
8,O=C(O)c1cc(-c2ccc(-c3ccccc3)cc2)nc2ccccc12,289 to 291
9,Cc1ccc(-c2cc(N)on2)cc1,148 to 150
10,CC(C)(Cc1ccccc1)C(=O)O,49 to 51
11,O=C(O)COc1ccc(Nc2ccccc2)cc1,138 to 142
12,Cc1ccc2c(C)c(CCC(=O)O)c(=O)oc2c1,161 to 163
13,COc1ccc(N)cc1OCC(N)=O,161 to 163
14,CCc1nn(C)c2[nH]nc(N)c12,123 to 125
15,CCOC(=O)c1c(N)sc(C(=O)OC)c1CC(=O)OC,168 to 170
16,Cc1nc(C)n(-c2ccc(C(=O)O)cc2)n1,289 to 291
17,O=C(O)CC1C=CS(=O)(=O)C1 (stereo not drawn),81 to 83
18,O=C(O)Cn1[nH]c(=O)ccc1=O,235 to 237
19,O=C(O)c1ccc(-c2ccc(Cl)c(Cl)c2)s1,253 to 255
20,N#CCc1ccc(Oc2ccc(N)cn2)cc1,67 to 69
21,Nc1ccc(S(=O)(=O)NCC(F)(F)F)cc1,128 to 130
22,Cc1nc(-c2ccccc2N)no1,77 to 79
23,CC(=O)c1c(C)[nH]c(C(=O)O)c1C,205 to 207
24,O=C(O)c1ccc(NC(=O)c2ccc(Br)cc2)cc1,327 to 329

row,SMILES,melting point [°C]
1,CN1CCOC(C(=O)c2ccc(Cl)cc2)C1 (stereo not drawn),59 to 61
2,O=C(O)c1csc(-c2ccc3c(c2)OCCO3)n1,199 to 201
3,Cc1cccc(Nc2nnc(S)s2)c1,196 to 198
4,NS(=O)(=O)c1ccc2c(c1)CCCC2,135 to 137
5,O=C(O)Cc1ccc2c(c1)OCCO2,54 to 56
6,O=C1C=CC(=O)N1c1cccc(Cl)c1,86 to 88
7,CC1Nc2ncccc2NC1=O (stereo not drawn),272 to 274
8,N#Cc1cc2c([nH]c1=O)CCC2,219 to 221
9,NC(=O)c1cc(F)ccc1N,143 to 145
10,NNC(=O)CC1CCCCC1,119 to 121
11,ClCc1nnnn1-c1ccccc1,45 to 73
12,CCOc1ccccc1-n1nnnc1SCC(=O)O,145 to 147
13,CCN1CCN(S(=O)(=O)c2cccc(N)c2)CC1,94 to 96
14,CS(=O)Cc1cccc(C(=O)O)c1 (stereo not drawn),181 to 183
15,Cc1cc2ncc3c(n2n1)C(=O)OCC3,200 to 202
16,COC(=O)C1CC(OC)=CC1=O (stereo not drawn),47 to 49
17,CS(=O)(=O)CCCBr,35 to 37
18,O=C(O)Cc1coc2ccc3ccccc3c12,166 to 168
19,Cc1nc2cc(=O)[nH]n2c(C)c1CC(=O)O,285 to 287
20,O=C(O)c1nn(-c2ccccc2)cc1OC(F)F,134 to 136
21,Cn1ncc2c(Cl)nc(Cl)nc21,86 to 88
22,O=C(O)c1cc2ccc(OC(F)(F)F)cc2[nH]1,160 to 162
23,CCN(CC)S(=O)(=O)c1ccc(Oc2ccc(C=O)cc2OC)c([N+](=O)[O-])c1,134 to 136
24,Cc1cccc(-c2nn(-c3ccc(F)cc3)cc2C(=O)O)c1,168 to 170

row,SMILES,melting point [°C]
1,COC(=O)c1sc(N2CCOCC2)nc1N,156 to 158
2,Cc1nc(-c2ccccn2)sc1C(=O)O,235 to 237
3,Cc1nc(Cc2ccccc2)sc1C(=O)O,236 to 238
4,CCCc1nc2ccccc2c(C(=O)O)c1CC,222 to 224
5,Cc1noc2nc(-c3ccccc3Cl)cc(C(=O)O)c12,248 to 250
6,Oc1cccc2ccc(N3CCCC3)nc12,85 to 87
7,NC(=NO)c1cccc(OCc2cccnc2)c1,127 to 129
8,O=C(O)C=Cc1ccc(OCc2ccccc2)cc1,141 to 143
9,CCS(=O)(=O)c1ccc(Cl)c(C(=O)O)c1,144 to 146
10,CCOc1ccc(-c2nnc(SC(F)F)n2CCC(=O)O)cc1,198 to 200
11,Nc1ccc(C(=O)NCC(F)(F)F)cc1,157 to 159
12,Cc1c(Br)ccc(C(=O)O)c1N,221 to 223
13,NC(=NO)c1ccc(Br)cc1,153 to 155
14,CC1(C)NC(=O)N(CC#N)C1=O,155 to 157
15,CCCc1cc(Cl)n2ncnc2n1,67 to 69
16,Clc1nc(-c2ccccn2)nc2c1CCC2,142 to 144
17,CCOC(=O)c1cnc(O)nc1C,179 to 181
18,CCOC(=O)CC(=O)c1[nH]c(C)c(C(=O)OCC)c1C,141 to 143
19,O=C(O)Cc1ccc(NS(=O)(=O)c2ccc(Cl)c(Cl)c2)cc1,174 to 176
20,N#CCc1cnn(-c2ccccc2)c1,38 to 40
21,CNS(=O)(=O)c1ccc(NCCOC)c(N)c1,111 to 113
22,O=C1NCCN1c1ccccc1[N+](=O)[O-],153 to 155
23,CC1CC(C)CN(S(=O)(=O)Cl)C1 (stereo not drawn),41 to 43
24,O=C(CBr)c1ccc(S(=O)(=O)N2CCCC2)cc1,121 to 123

row,SMILES,melting point [°C]
1,O=C(Nc1ccccc1)C1CCN(C(=O)CCl)CC1,143 to 145
2,NC1=NC(=O)NC12CCCC2,250 to 252
3,Cn1cccc1C(=O)NC1CCNCC1,195 to 197
4,CC1CCN(C(N)=S)CC1,103 to 105
5,CC(C)C1(C)NC(=O)NC1=O (stereo not drawn),176 to 178
6,CC(C)(O)CN1CCN(C(=O)OC(C)(C)C)CC1,33 to 35
7,O=C1NC(=O)C(c2cc(Br)ccc2F)N1 (stereo not drawn),194 to 196
8,O=c1[nH]c2ccccc2n1C1=CCCCC1,181 to 183
9,Cc1ccc(O)c(S(=O)(=O)N(C)C)c1,76 to 78
10,Cn1c(S)nnc1COc1ccc(Cl)cc1,118 to 120
11,O=C(O)c1ccnc(C2CCCC2)n1,129 to 131
12,Cc1cc(C(=O)CCl)c(C)n1C(C)C,45 to 47
13,O=[N+]([O-])c1cc(Br)ccc1S(=O)(=O)Cl,95 to 97
14,NC(=O)C1CCC(C(=O)O)CC1 (stereo not drawn),205 to 207
15,NCc1ccccc1CS(=O)(=O)N1CCOCC1,90 to 92
16,CCN(CC)c1nc2sc(C(=O)O)cc2s1,191 to 193
17,NS(=O)(=O)Cc1ccccc1[N+](=O)[O-],131 to 133
18,CC(C)(C)OC(=O)N1C2CCC1CC(CC(=O)O)C2 (stereo not drawn),104 to 106
19,Cn1cc(N)cc(Br)c1=O,159 to 161
20,COc1ccc2oc(C)c(C(=O)O)c2c1,209 to 211
21,CN(C)C(=O)Cc1ccccc1N,69 to 71
22,O=C(Nc1ccccc1)c1cccc(-n2ccnc2S)c1,228 to 230
23,COc1ccc(C(=O)O)cc1S(=O)(=O)N(C)Cc1ccccc1,180 to 182
24,CS(=O)(=O)c1cccc(S(=O)(=O)Cl)c1,87 to 89

row,SMILES,melting point [°C]
1,CC(C)(NS(C)(=O)=O)C(=O)O,71 to 73
2,COc1cc(CC#N)ccc1[N+](=O)[O-],84 to 86
3,NNC(=O)NCc1ccc(Cl)cc1,163 to 165
4,Nc1nc(-c2cccc(-n3cnnn3)c2)cs1,184 to 186
5,Cc1ccsc1-c1nsc(N)n1,165 to 167
6,CC(C)n1c(Cl)nnc1-c1ccccc1,129 to 131
7,O=c1[nH]c(-c2ccncc2)cs1,303 to 305
8,NS(=O)(=O)c1cccc(NC(=O)c2ccc(Cl)cc2)c1,93 to 96
9,NC(=NO)c1ccc(OCc2cccnc2)cc1,165 to 167
10,COC(=O)c1ccc(S(C)(=O)=O)cc1,116 to 118
11,CC(C)(C)OC(=O)NCc1cccc(C(N)=S)c1,105 to 107
12,N=C(NN)c1cc(F)cc(F)c1,101 to 103
13,ClCc1nnc(-c2ccc(Cl)cc2Cl)o1,87 to 89
14,Nc1nnc(-c2ccco2)s1,250 to 252
15,O=C1CN(C(=O)CCl)CCN1,124 to 126
16,CC(=O)c1ccc(-c2ccccc2Cl)s1,54 to 56
17,O=C(O)C1Cc2cccc(F)c2O1 (stereo not drawn),126 to 128
18,O=C(C(=O)c1ccccn1)c1ccccn1,154 to 156
19,CC(Oc1ccccc1Br)C(=O)O (stereo not drawn),138 to 140
20,O=C(O)c1nn(-c2ccccc2)c2c1CCC2,179 to 181
21,COC(=O)C(=CN(C)C)C(C)=O,47 to 49
22,Cc1c(C(F)(F)F)cccc1S(N)(=O)=O,149 to 151
23,O=[N+]([O-])c1cc(S(=O)(=O)N2CCOCC2)ccc1N1CCOCC1,154 to 156
